In PMC5378566, “Design, synthesis and evaluation in an LPS rodent model of neuroinflammation of a novel ^18F-labelled PET tracer targeting P2X7” (EJNMMI Research, 2017):
Blank lines part the entries; values can stand above or below the molecule they belong to.

Columns and labels:
[1] = Stability test in 0.05% DMSO by radio/UV-HPLC; format: physicochemical; settings: 37 °C, 2 h
Description: The reaction vessel was heated at 160 °C for 15 min, cooled to 50 °C and the solvent was concentrated at 50 °C under a stream of nitrogen for 7–10 min. Next, the crude mixture was diluted in 2 mL water ensuring <15% acetonitrile was present and injected in an HPLC semi-prep C18 column to provide isolation of the pure product in >99% RCP and >300 GBq/μmol molar radioactivity. The product was diluted to 30–50 mL in water and passed through a light C18 Short Sep-Pak SPE cartridge (WAT023501) for concentration in 200–500 μL ethanol. The resulting product was obtained in high purity and 4.0% overall RCY in 3 h and 30 min from start of synthesis. Purity tests were performed with HPLC method B (Table 1).
Supp. […] UV_A: UV chromatogram; ChA: Channel A (Radiochromatogram); Cps: counts per second.

Sprague–Dawley rats = assay: PET/CT imaging and biodistribution in LPS-treated and control rats; format: in vivo, rat
Description: Male Sprague–Dawley rats of 240–270 g were bought from Charles River Laboratories International, Inc., and used within 90 days. The animals were housed with a week of acclimatisation before procedures were done under pathogen-free conditions in a temperature- and humidity-controlled environment and given access to food and water ad libitum. All experiments were carried out in the Rayne Institute, St. Thomas’ Hospital, King’s College London, between 2015 and 2016 and according to the Animals Act 1986 and with the approval of the King’s College research ethics committee.
Twenty-four hours prior to scanning, all rats were pre-treated by an intraperitoneal injection of 0.5 mg/kg LPS from Escherichia coli (0111:B4 L2630, Sigma Aldrich) at 0.5 mg/mL or with 1 mL/kg sterile saline solution and weighed before the start of the PET imaging procedure. Then, the saline-dissolved reformulated radiotracer was injected under isoflurane anaesthesia in 0.2–5 MBq, corresponding to an administered dose of 0.5–16 ng/kg, and >300 GBq/μmol molar radioactivity via tail vein cannulation, followed by a 0.15 mL saline flush. Details on anaesthesia and PET/CT acquisition and analysis are reported in Additional file 1. Immediately after imaging, the animals were culled by terminal anaesthesia and cervical dislocation and dissected. Organs and body fluids were collected for gamma counting (LKB Wallac 1282) and biodistribution analysis.
Data are expressed as mean ± standard error mean (SEM) from three independent replicates, unless otherwise indicated. Statistical analysis of the %ID/g variation in the PET scans and biodistributions were performed with GraphPad Prism 5.0 (San Diego, USA) as a parametric two-way ANOVA test with Bonferroni post-test, while the mean longitudinal percentage injected dose per gram (%ID/g) and the post-LPS treatment weight variation were analysed with a Student’s t test. The asterisk indicates P < 0.01; **P < 0.005; ***P < 0.001. Where unspecified, no significance was found.
PET/CT scans were acquired with Nuclide^TM within the energy window of 400-600 keV, coincidence detection ratio 1-5 and voxel resolution of 0.30 x 0.30 x 0.30 mm^3. CT scanning was performed immediately before or after the PET scans with X-ray energy of 45 KVp, 360 projection and 0.25 x 0.25 x 0.21 mm^3 voxel size. The datasets were resolved by dynamic fine reconstructions with coincidence detection ratio 1-5 and decay correction to the time of injection. Binning was performed in incremental time units of 5 to 30 min size. All reconstructed datasets were analysed with VivoQuant 1.21 (InviCRO, LLC, Boston, USA). ROI activity quantification was corrected for background noise. Uptake was expressed as percent injected dose per gram of tissue (%ID/g), as calculated with reference to the injected activity dose at the time of injection and the ROI size in mm^3. The blood ROI was sampled from the coronary artery. All data are presented as mean ± SEM unless otherwise stated.
Immediately after imaging, the animals were culled by terminal anaesthesia and cervical dislocation. The animals were dissected and organs and body fluids were collected for gamma counting (LKB Wallac 1282) and weighed. An ^18F counts-to-becquerel standard curve was made so as to enable conversion between the two units. The radiotracer uptake in each organ was expressed as %ID/g, where %ID was the percent ratio of the measured organ radioactivity to the total administered dose. The latter was defined as the MBq injected to the animals, decay corrected to the start of counting.

rat P2X7 [2] = biological target: T1, rat P2X7 (Rattus norvegicus, UniProt Q64663); set-up: method as in PMID 11181928; settings: YoPro dye uptake, P2X7-HEK293; cited from earlier work
T1 construct: expressed in transfected cells
T1 sequence (Q64663 1-595): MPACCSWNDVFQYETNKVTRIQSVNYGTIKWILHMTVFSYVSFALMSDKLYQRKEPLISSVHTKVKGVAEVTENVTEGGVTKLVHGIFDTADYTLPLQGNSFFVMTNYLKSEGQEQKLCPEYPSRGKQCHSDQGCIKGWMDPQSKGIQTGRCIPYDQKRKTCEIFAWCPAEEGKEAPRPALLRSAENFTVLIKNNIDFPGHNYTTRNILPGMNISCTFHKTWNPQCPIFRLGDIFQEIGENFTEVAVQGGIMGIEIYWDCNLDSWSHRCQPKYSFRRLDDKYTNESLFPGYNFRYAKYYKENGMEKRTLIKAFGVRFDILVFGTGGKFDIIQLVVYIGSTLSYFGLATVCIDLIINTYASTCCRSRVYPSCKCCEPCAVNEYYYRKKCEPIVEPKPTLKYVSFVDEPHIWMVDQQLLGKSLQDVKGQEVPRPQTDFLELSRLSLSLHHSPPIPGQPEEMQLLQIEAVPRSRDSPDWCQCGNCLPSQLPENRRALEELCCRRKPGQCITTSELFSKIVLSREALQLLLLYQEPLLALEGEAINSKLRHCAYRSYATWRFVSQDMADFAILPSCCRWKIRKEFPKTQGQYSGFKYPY

human P2X7 [3] = biological target: T2, human P2X7 (Homo sapiens, UniProt Q99572); set-up: method as in PMID 11181928; settings: YoPro dye uptake, P2X7-HEK293; cited from earlier work
T2 construct: expressed in transfected cells
T2 sequence (Q99572 1-595): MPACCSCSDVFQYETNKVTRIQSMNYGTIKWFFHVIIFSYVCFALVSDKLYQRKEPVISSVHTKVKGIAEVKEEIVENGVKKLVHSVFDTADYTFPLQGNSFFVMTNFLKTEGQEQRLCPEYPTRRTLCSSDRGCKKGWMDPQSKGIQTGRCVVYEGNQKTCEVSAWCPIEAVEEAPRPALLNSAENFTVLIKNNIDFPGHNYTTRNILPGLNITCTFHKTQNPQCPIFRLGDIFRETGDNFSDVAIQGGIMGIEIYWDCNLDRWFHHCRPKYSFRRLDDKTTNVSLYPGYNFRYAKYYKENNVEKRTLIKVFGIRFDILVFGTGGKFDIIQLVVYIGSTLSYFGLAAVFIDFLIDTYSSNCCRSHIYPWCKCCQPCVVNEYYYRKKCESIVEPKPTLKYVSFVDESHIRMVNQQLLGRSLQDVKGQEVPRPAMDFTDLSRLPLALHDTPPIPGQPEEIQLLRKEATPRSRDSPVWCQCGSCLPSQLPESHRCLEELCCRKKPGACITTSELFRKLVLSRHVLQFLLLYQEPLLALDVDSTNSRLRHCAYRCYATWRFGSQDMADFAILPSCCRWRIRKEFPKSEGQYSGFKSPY

mouse P2X7 [4] = biological target: T3, mouse P2X7 (Mus musculus, UniProt Q9Z1M0); set-up: method as in PMID 11181928; settings: YoPro dye uptake, P2X7-HEK293; cited from earlier work
T3 sequence (Q9Z1M0 1-595): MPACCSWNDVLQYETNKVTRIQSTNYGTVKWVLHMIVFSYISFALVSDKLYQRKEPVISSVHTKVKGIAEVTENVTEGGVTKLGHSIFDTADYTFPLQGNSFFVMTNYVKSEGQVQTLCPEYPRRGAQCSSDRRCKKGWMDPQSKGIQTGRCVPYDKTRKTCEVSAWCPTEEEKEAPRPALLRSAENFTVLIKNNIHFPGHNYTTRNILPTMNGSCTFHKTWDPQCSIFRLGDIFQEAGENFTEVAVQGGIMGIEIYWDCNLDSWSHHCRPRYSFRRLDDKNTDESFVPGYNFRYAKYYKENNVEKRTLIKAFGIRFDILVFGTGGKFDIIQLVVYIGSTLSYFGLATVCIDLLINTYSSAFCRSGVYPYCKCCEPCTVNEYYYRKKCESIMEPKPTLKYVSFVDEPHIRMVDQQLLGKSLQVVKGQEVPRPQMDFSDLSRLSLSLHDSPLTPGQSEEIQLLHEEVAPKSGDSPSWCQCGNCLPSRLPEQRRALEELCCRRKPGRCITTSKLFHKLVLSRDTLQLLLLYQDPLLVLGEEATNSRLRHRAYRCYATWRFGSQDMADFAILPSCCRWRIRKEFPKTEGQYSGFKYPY

mouse P2X7 [5] = biological target: T3, mouse P2X7; assay: Calcium influx (Fura-2/AM) inhibition assay, BzATP-activated, B16 cells; format: cell-based; settings: Mouse isoform; for pKi: Cheng–Prusoff; for Ki: Cheng–Prusoff from pIC50 assuming competitive inhibition, BzATP 200 μM; for pIC50: P2X7-B16, [BzATP] 200 μM
mouse P2X7 [6] = biological target: T3, mouse P2X7; set-up: method as in PMID 19558545; settings: Mouse isoform, literature value from similar assay format; cited from earlier work
human P2X7 [7] = biological target: T2, human P2X7; assay: Calcium influx (Fura-2/AM) inhibition assay, BzATP-activated; format: cell-based; settings: Human isoform
rat P2X7 [8] = biological target: T1, rat P2X7; assay: as above; format: cell-based; settings: Rat isoform

- Stability [1]: no radioactive by-product formation
- blood concentration of the tracer, LPS vs control (Sprague–Dawley rats; 90 min biodistribution): substantially unvaried
- tracer uptake in upper digestive organs (stomach, pancreas), LPS vs control (Sprague–Dawley rats; 90 min biodistribution): increased, albeit non-significant
- CNS uptake, spinal cord (Sprague–Dawley rats; PET, rats, i.v.): 0.05–0.1 %ID/g
- CNS uptake, whole brain, cortex, olfactory bulb, cerebellum and basal ganglia (Sprague–Dawley rats; PET, rats, i.v.): 0.02–0.07 %ID/g
- blood concentration (longitudinal uptake profile) (Sprague–Dawley rats; PET, rats, i.v., blood ROI): 0.05–0.1 %ID/g
- brain uptake (visual PET image assessment) (Sprague–Dawley rats; control and 0.5 mg/kg LPS-pre-treated rats): low brain uptake
- removal of the radioactivity (excretion route) (Sprague–Dawley rats; rats): predominantly via the urinary route
Molecule: N#C/N=C(/NCc1ccc([18F])cc1)Nc1cccc2ncccc12 [[^18F]EFB, 2-cyano-1-(4-[^18F]fluorobenzyl)-3-(quinolin-5-yl)guanidine]

Molecule: 2′(3′)-O-(4-Benzoylbenzoyl)adenosine 5′-triphosphate triethylammonium salt [BzATP]
- pEC50 (rat P2X7 [2]): 6.3 ± 0.13
- pEC50 (human P2X7 [3]): 6.8 ± 0.14
- pEC50 (mouse P2X7 [4]): 4.7 ± 0.07

- pKi (mouse P2X7 [5]): 7.01
- Ki (mouse P2X7 [5]): 97.2 nM
- pIC50 (mouse P2X7 [5]): 5.97
- Ki (human P2X7 [7]; Cheng–Prusoff): 0.105 nM
- IC50 (human P2X7 [7]; P2X7-HEK293, [BzATP] 100 μM): 66.1 nM
Molecule: COc1ccc(CC(=O)NC(NC(=NC#N)Nc2cccc3ncccc23)C(C)(C)C)cc1OC (stereo not shown) [A-740003, N-(1-{[(Cyanoimino)(5-quinolinylamino)methyl]amino}-2,2-dimethylpropyl)-2-(3,4-dimethoxyphenyl)acetamide, reference compound]
- Lit. pIC50 (mouse P2X7 [6]): 6.57 [34]

- Ki (rat P2X7 [8]; Cheng–Prusoff from pIC50 assuming competitive inhibition, BzATP 100 μM): 36.1 nM
- IC50 (rat P2X7 [8]; P2X7-HEK293, [BzATP] 100 μM): 7240 nM
- pKi (mouse P2X7 [5]): 6.26
- Ki (mouse P2X7 [5]): 547 nM
- pIC50 (mouse P2X7 [5]): 5.22
Molecule: N#CN=C(NCc1ccc(F)cc1)Nc1cccc2ncccc12 [EFB, 2-cyano-1-(4-fluorobenzyl)-3-(quinolin-5-yl)guanidine]
